Biological target: wild-type human cardiac sodium channel, hNav1.5 (Homo sapiens, UniProt Q14524)
Test: Late INa screening assay (QPatch whole cell patch clamp, HEK293)
Format: cell-based
Settings: 10 μM Tefluthrin activating late INa
Description: The late sodium current (Late INa) and peak sodium current (Peak INa) assays are performed on an automated electrophysiology platform, QPatch 16× (Sophion Bioscience, Copenhagen, Denmark), which uses the whole cell patch clamp technique to measure currents through the cell membrane of up to 16 cells at a time. The assay uses an HEK293 (human embryonic kidney) cell line heterologously expressing the wild-type human cardiac sodium channel, hNav1.5, purchased from Millipore (Billerica, Mass.). No beta subunits were coexpressed with the Na channel alpha subunit. Cells are maintained with standard tissue culture procedures and stable channel expression is maintained with 400 μg/mL Geneticin in the culture medium. Cells isolated for use on QPatch are incubated for 5 minutes in Detachin 1×(Genlantis, San Diego, USA) at 37° C. to ensure that 80-90% of the cells are single and not part of a cell cluster. Experiments are carried out at 23-25° C.
For both the Late INa and Peak INa assays, series resistance compensation is set to 100% and series resistance and whole-cell compensation are performed automatically. Currents are digitized at 25 kHz and low-pass filtered at 12 kHz and 10 kHz for the late and peak INa assays, respectively. Currents through open sodium channels are automatically recorded and stored in the Sophion Bioscience Oracle database (Sophion Bioscience, Copenhagen, Denmark). Analysis is performed using QPatch Assay and database software and data are compiled in Excel.
Compound stocks are routinely made by the Gilead Sample Bank in plastic vials to 10 mM in dimethyl sulfoxide (DMSO). In some cases, when compounds are not soluble in DMSO, they are made in 100% ethanol. Stocks are sonicated as necessary. The extracellular solution for screening Late INa is composed of: 140 mM NaCl, 4 mM KCl, 1.8 mM CaCl2, 0.75 mM MgCl2 and 5 mM HEPES with pH adjusted to 7.4 using NaOH. The intracellular solution used to perfuse the inside of the cells for both the Late INa and Peak INa assays contains: 120 mM CsF, 20 mM CsCl, 5 mM EGTA, 5 mM HEPES and pH adjusted to 7.4 with CsOH. Compounds are diluted in extracellular solution to 1 μM in glass vials and then transferred to glass well plates before robotic addition to the cells. The 0 mM Na extracellular solution (0Na-ECF) used at the end of each experiment for the Late INa and Peak INa assays to measure baseline current contains: 140 mM N-methyl-D-glucamine; 4 mM KCl; 1.8 mM CaCl2; 0.75 mM MgCl2; 5 mM HEPES and pH was adjusted to 7.4 with HCl.
For the Late INa assay, sodium channels are activated every 10 seconds (0.1 Hz) by depolarizing the cell membrane to −20 mV for 250 milliseconds (ms) from a holding potential of −120 mV. In response to a −20 mV voltage step, typical hNav1.5 sodium currents activate rapidly to a peak negative current and then inactivate nearly completely within 3-4 ms.
Compounds were tested to determine their activity in blocking the late sodium current. Late INa was generated by adding 10 μM Tefluthrin (pyrethroid) to the extracellular solution while recording Na currents. […] ATX-II and tefluthrin occupy distinct, non-overlapping binding sites and modify Na^+ channel function differently to increase late INa. […] After establishing the whole cell recording configuration, late INa activator is added to each well 4 times over a 16-17 minute period so that the late component of the Na current reaches a stable value.
Results are reported as percent block of late INa.

Sequence of wild-type human cardiac sodium channel, hNav1.5 (Q14524 whole entry): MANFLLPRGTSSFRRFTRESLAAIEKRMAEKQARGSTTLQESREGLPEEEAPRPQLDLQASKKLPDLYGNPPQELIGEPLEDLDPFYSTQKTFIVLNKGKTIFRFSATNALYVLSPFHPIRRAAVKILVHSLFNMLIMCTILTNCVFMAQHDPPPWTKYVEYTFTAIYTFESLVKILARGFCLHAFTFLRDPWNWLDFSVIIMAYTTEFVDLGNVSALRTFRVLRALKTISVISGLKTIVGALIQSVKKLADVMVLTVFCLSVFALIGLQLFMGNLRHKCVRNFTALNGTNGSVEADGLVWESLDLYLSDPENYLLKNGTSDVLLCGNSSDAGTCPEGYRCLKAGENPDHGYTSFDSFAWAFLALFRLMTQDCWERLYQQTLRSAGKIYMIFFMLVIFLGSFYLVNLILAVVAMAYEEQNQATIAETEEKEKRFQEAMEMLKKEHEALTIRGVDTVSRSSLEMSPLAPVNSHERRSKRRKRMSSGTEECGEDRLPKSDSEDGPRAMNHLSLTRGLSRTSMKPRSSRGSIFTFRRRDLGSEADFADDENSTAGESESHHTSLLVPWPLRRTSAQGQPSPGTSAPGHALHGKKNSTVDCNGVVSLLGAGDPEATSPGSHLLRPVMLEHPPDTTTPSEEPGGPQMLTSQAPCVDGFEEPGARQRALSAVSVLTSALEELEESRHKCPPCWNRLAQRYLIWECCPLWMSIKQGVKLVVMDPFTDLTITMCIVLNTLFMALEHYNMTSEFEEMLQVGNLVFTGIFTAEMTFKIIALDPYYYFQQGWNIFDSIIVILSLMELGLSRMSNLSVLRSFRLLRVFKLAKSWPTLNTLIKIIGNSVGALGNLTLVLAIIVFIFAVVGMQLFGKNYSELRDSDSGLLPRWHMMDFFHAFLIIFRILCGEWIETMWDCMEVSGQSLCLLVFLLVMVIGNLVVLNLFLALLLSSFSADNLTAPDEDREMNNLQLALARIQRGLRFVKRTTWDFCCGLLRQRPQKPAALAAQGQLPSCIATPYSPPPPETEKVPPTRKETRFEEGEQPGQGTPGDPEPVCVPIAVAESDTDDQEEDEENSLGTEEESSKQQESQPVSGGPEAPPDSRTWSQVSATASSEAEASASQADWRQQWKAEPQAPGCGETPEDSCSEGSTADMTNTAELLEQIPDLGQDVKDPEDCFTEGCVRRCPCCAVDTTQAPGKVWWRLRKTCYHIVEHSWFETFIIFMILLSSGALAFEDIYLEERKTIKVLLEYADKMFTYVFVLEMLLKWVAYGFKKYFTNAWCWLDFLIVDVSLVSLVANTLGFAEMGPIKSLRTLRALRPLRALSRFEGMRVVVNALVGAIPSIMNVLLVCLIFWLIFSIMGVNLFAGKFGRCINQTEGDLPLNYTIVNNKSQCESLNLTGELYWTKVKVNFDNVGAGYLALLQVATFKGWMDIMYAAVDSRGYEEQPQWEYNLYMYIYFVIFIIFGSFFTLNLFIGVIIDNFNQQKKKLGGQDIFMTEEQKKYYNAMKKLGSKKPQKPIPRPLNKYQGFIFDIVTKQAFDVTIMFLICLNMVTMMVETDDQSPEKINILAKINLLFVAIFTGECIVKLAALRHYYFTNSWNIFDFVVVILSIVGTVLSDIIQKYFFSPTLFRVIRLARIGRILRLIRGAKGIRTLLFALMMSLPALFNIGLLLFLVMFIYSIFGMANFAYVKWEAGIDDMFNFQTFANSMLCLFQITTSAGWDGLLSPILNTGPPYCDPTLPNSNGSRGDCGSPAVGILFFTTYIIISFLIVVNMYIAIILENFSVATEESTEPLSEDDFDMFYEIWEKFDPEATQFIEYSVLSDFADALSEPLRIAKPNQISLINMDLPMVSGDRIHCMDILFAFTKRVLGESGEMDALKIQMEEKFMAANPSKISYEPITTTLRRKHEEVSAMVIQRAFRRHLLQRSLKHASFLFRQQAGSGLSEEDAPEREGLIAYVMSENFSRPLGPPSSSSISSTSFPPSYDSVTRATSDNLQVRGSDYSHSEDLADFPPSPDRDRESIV

| SMILES | inhibited (or reduced) the late sodium current [%] |
| --- | --- |
| O=C1c2cc(-c3ccc(C(F)(F)F)cc3F)ccc2OCCN1Cc1ncccn1 [Compound 11-105] | 45 |

Same assay, conditions: HEK293, percent block of late INa; compound at 1 μM; 10 μM Tefluthrin; read-out: Late INa 1 μM

| SMILES | inhibition at 1 µM [%] |
| --- | --- |
| CC(C)(C)C1CC=C(c2ccc3c(c2)C(=O)N(Cc2ncccn2)CCO3)CC1 (stereo not shown) [Compound V-1, 7-(4-tert-butylcyclohex-1-enyl)-4-(pyrimidin-2-ylmethyl)-3,4-dihydrobenzo[f][1,4]oxazepin-5(2H)-one] | 24 |
| O=C1c2cc(C3=CCCCC3)ccc2OCCN1Cc1ncccn1 [Compound V-3, 7-cyclohexenyl-4-(pyrimidin-2-ylmethyl)-3,4-dihydrobenzo[f][1,4]oxazepin-5(2H)-one] | 23 |
| O=C1c2cc(-c3ccc(C(F)(F)F)cc3)ccc2-n2ccnc2CN1Cc1ccccc1 [Compound X-12, 5-benzyl-8-(4-(trifluoromethyl)phenyl)-4H-benzo[f]imidazo[1,2-a][1,4]diazepin-6(5H)-one] | 26 |
| CC1(CN2CCOc3ccc(-c4ccc(OC(F)(F)F)cc4)cc3C2=O)COC1 [II-1, 4-((3-methyloxetan-3-yl)methyl)-7-(4-(trifluoromethoxy)phenyl)-3,4-dihydrobenzo[f][1,4]oxazepin-5(2H)-one] | 25 |
| O=C1c2cc(-c3ccc(OC(F)(F)F)cc3)ccc2OCCN1CCN1CCCC1 [II-3, 4-(2-(pyrrolidin-1-yl)ethyl)-7-(4-(trifluoromethoxy)phenyl)-3,4-dihydrobenzo[f][1,4]oxazepin-5(2H)-one] | 15 |
| O=C1c2cc(-c3ccc(OC(F)(F)F)cc3)ccc2OCCN1Cc1nnc(C2CCC2)o1 [II-4, 4-((5-cyclobutyl-1,3,4-oxadiazol-2-yl)methyl)-7-(4-(trifluoromethoxy)phenyl)-3,4-dihydrobenzo[f][1,4]oxazepin-5(2H)-one] | 30 |
| O=C1c2cc(-c3ccc(OC(F)(F)F)cc3)ccc2OCCN1Cc1ccc2c(c1)OCCO2 [II-5, 4-((2,3-dihydrobenzo[b][1,4]dioxin-6-yl)methyl)-7-(4-(trifluoromethoxy)phenyl)-3,4-dihydrobenzo[f][1,4]oxazepin-5(2H)-one] | 26 |
| O=C1c2cc(-c3ccc(OC(F)(F)F)cc3)ccc2OCCN1CC(F)F [II-6, 4-(2,2-difluoroethyl)-7-(4-(trifluoromethoxy)phenyl)-3,4-dihydrobenzo[f][1,4]oxazepin-5(2H)-one] | 16 |
| O=C1c2cc(-c3ccc(C(F)(F)F)cc3)ccc2OC[C@H]2CN(Cc3ncccn3)CCN12 [II-8, (R)-2-(pyrimidin-2-ylmethyl)-8-(4-(trifluoromethyl)phenyl)-3,4,12,12a-tetrahydro-1H-benzo[f]pyrazino[2,1-c][1,4]oxazepin-6(2H)-one] | 21 |
| COCCN1CCOc2ccc(-c3ccc(OC(F)(F)F)cc3)cc2C1=O [II-11, 4-(2-methoxyethyl)-7-(4-(trifluoromethoxy)phenyl)-3,4-dihydrobenzo[f][1,4]oxazepin-5(2H)-one] | 23 |
| C[C@H]1COc2ccc(-c3ccc(C(F)(F)F)cc3)cc2C(=O)N1Cc1ncccn1 [II-12, (S)-3-methyl-4-(pyrimidin-2-ylmethyl)-7-(4-(trifluoromethyl)phenyl)-3,4-dihydrobenzo[f][1,4]oxazepin-5(2H)-one] | 21 |
| C[C@@H]1COc2ccc(-c3ccc(C(F)(F)F)cc3)cc2C(=O)N1Cc1ncccn1 [II-13, (R)-3-methyl-4-(pyrimidin-2-ylmethyl)-7-(4-(trifluoromethyl)phenyl)-3,4-dihydrobenzo[f][1,4]oxazepin-5(2H)-one] | 18 |
| O=C1c2cc(-c3ccc(OC(F)(F)F)cc3)ccc2OCCN1Cc1ccc(C(F)(F)F)nc1 [II-16, 7-(4-(trifluoromethoxy)phenyl)-4-((6-(trifluoromethyl)pyridin-3-yl)methyl)-3,4-dihydrobenzo[f][1,4]oxazepin-5(2H)-one] | 19 |
| C[C@@H]1COc2ccc(-c3ccc(C(F)(F)F)cc3)cc2C(=O)N1 [II-19, (R)-3-methyl-7-(4-(trifluoromethyl)phenyl)-3,4-dihydrobenzo[f][1,4]oxazepin-5(2H)-one] | 21 |
| N[C@@H]1C[C@H]2COc3ccc(-c4ccc(C(F)(F)F)cc4)cc3C(=O)N2C1 [II-21, (2R,11aS)-2-amino-7-(4-(trifluoromethyl)phenyl)-2,3,11,11a-tetrahydrobenzo[f]pyrrolo[2,1-c][1,4]oxazepin-5(1H)-one] | 18 |
| CCN1CCN2C(=O)c3cc(-c4ccc(C(F)(F)F)cc4)ccc3OC[C@H]2C1 [II-23, (R)-2-ethyl-8-(4-(trifluoromethyl)phenyl)-3,4,12,12a-tetrahydro-1H-benzo[f]pyrazino[2,1-c][1,4]oxazepin-6(2H)-one] | 25 |
| O=C1c2cc(-c3ccc(C(F)(F)F)cc3)ccc2OC[C@@H]2CN(CC(F)F)CCN12 [II-24, (S)-2-(2,2-difluoroethyl)-8-(4-(trifluoromethyl)phenyl)-3,4,12,12a-tetrahydro-1H-benzo[f]pyrazino[2,1-c][1,4]oxazepin-6(2H)-one] | 23 |
| CCN1CCN2C(=O)c3cc(-c4ccc(C(F)(F)F)cc4)ccc3OC[C@@H]2C1 [II-25, (S)-2-ethyl-8-(4-(trifluoromethyl)phenyl)-3,4,12,12a-tetrahydro-1H-benzo[f]pyrazino[2,1-c][1,4]oxazepin-6(2H)-one] | 25 |
| CC1(C)COC(C)(CCN2CCOc3ccc(-c4ccc(OC(F)(F)F)cc4)cc3C2=O)OC1 [II-35, 7-(4-(trifluoromethoxy)phenyl)-4-(2-(2,5,5-trimethyl-1,3-dioxan-2-yl)ethyl)-3,4-dihydrobenzo[f][1,4]oxazepin-5(2H)-one] | 25 |
| CC(C)(C)OC(=O)N[C@@H]1C[C@@H]2COc3ccc(-c4ccc(C(F)(F)F)cc4)cc3C(=O)N2C1 [II-39, tert-butyl (2R,11aR)-5-oxo-7-(4-(trifluoromethyl)phenyl)-1,2,3,5,11,11a-hexahydrobenzo[f]pyrrolo[2,1-c][1,4]oxazepin-2-ylcarbamate] | 16 |
| O=C1c2cc(-c3ccc(OC(F)(F)F)cc3)ccc2OCCN1Cc1cc(-c2ccccn2)on1 [II-41, 4-((5-(pyridin-2-yl)isoxazol-3-yl)methyl)-7-(4-(trifluoromethoxy)phenyl)-3,4-dihydrobenzo[f][1,4]oxazepin-5(2H)-one] | 17 |
| CCOC(=O)c1cccc(CN2CCOc3ccc(-c4ccc(OC(F)(F)F)cc4)cc3C2=O)c1 [II-43, ethyl 3-((5-oxo-7-(4-(trifluoromethoxy)phenyl)-2,3-dihydrobenzo[f][1,4]oxazepin-4(5H)-yl)methyl)benzoate] | 23 |
| O=C1c2cc(-c3ccc(OC(F)(F)F)cc3)ccc2OCCN1CCc1ncccn1 [II-44, 4-(2-(pyrimidin-2-yl)ethyl)-7-(4-(trifluoromethoxy)phenyl)-3,4-dihydrobenzo[f][1,4]oxazepin-5(2H)-one] | 39 |
| O=C1c2cc(-c3ccc(OC(F)(F)F)cc3)ccc2OCCN1Cc1ccc(F)c(F)c1 [II-45, 4-(3,4-difluorobenzyl)-7-(4-(trifluoromethoxy)phenyl)-3,4-dihydrobenzo[f][1,4]oxazepin-5(2H)-one] | 27 |
| N[C@H]1C[C@H]2COc3ccc(-c4ccc(C(F)(F)F)cc4)cc3C(=O)N2C1 [II-51, (2S,11aS)-2-amino-7-(4-(trifluoromethyl)phenyl)-2,3,11,11a-tetrahydrobenzo[f]pyrrolo[2,1-c][1,4]oxazepin-5(1H)-one] | 20 |
| O=C1c2cc(-c3ccc(C(F)(F)F)cc3)ccc2OC[C@H]2CCCN12 [II-59, (R)-7-(4-(trifluoromethyl)phenyl)-2,3,11,11a-tetrahydrobenzo[f]pyrrolo[2,1-c][1,4]oxazepin-5(1H)-one] | 15 |
| O=C1c2cc(-c3ccc(OC(F)(F)F)cc3)ccc2OCCN1Cc1ncc(Cl)cn1 [II-65, 4-((5-chloropyrimidin-2-yl)methyl)-7-(4-(trifluoromethoxy)phenyl)-3,4-dihydrobenzo[f][1,4]oxazepin-5(2H)-one] | 19 |
